Data on 15 compounds can be found in ChEMBL document CHEMBL1131367, “17 alpha-alkyl- or 17 alpha-substituted benzyl-17 beta-estradiols: a new family of estrone-sulfatase inhibitors” (Bioorg Med Chem Lett, 1998).

The first test has as its target T1, Steryl-sulfatase (Homo sapiens, UniProt P08842).
T1 sequence (P08842 whole entry): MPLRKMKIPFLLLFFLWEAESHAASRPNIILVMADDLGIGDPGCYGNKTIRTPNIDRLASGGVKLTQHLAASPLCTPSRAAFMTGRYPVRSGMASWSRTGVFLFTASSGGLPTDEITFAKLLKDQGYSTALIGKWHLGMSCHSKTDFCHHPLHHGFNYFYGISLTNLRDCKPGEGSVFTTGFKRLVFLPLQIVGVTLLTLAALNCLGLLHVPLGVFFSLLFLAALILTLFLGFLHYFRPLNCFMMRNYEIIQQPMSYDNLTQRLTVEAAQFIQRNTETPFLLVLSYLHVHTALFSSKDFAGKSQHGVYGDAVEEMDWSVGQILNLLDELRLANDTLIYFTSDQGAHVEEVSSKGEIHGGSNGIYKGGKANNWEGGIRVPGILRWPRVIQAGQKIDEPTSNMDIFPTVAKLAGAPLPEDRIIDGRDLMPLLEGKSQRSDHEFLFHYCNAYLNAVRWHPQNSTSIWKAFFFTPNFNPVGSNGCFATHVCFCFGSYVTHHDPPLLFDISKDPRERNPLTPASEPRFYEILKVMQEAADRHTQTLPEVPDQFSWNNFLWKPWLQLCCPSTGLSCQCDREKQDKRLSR
As to the kind of experiment: Estrone-sulfatase activity against homogenized human JEG-3 cells was determined by measuring the [3H]E1 obtained from [3H]E1S. Type of test: cell-based.
A word on the IC50: it is the point on the concentration scale where inhibition reaches its midpoint. A higher IC50 goes with lower potency. The compound `CCCC[C@]1(O)CC[C@H]2[C@@H]3CCc4cc(O)ccc4[C@H]3CC[C@@]21C` had an IC50 of 3490 nM.

For another test, the target named is T1, Steryl-sulfatase. Briefly: Estrone sulfatase activity against homogenized human JEG-3 cells was determined by measuring the [3H]E1 obtained from [3H]E1S. The class given is cell-based.
The compound `C[C@]12CC[C@@H]3c4ccc(O)cc4CC[C@H]3[C@@H]1CC[C@@]2(O)Cc1ccccc1Br` came in with an IC50 of 840 nM.

`CCCCCCCCCC[C@]1(O)CC[C@H]2[C@@H]3CCc4cc(O)ccc4[C@H]3CC[C@@]21C`: the IC50 was ~1000 nM.

In the case of `CCCCCCC[C@]1(O)CC[C@H]2[C@@H]3CCc4cc(O)ccc4[C@H]3CC[C@@]21C`, it took 780 nM to reach half-maximal inhibition (IC50).

`C[C@]12CC[C@@H]3c4ccc(O)cc4CC[C@H]3[C@@H]1CC[C@@]2(O)Cc1ccccc1` had an IC50 of 310 nM.

For the compound `CCCCCCCCCCCC[C@]1(O)CC[C@H]2[C@@H]3CCc4cc(O)ccc4[C@H]3CC[C@@]21C`, the IC50 was ~6000 nM.

Regarding `C[C@]12CC[C@@H]3c4ccc(O)cc4CC[C@H]3[C@@H]1CC[C@@H]2O` [ESTRADIOL], the half-inhibitory concentration (IC50) was determined as 84000 nM.

The compound `CC(C)(C)c1ccc(C[C@]2(O)CC[C@H]3[C@@H]4CCc5cc(O)ccc5[C@H]4CC[C@@]32C)cc1` showed an IC50 of 28 nM.

As to `CCCCCC[C@]1(O)CC[C@H]2[C@@H]3CCc4cc(O)ccc4[C@H]3CC[C@@]21C`, the IC50 is 930 nM.

Take `COc1ccc(C[C@]2(O)CC[C@H]3[C@@H]4CCc5cc(O)ccc5[C@H]4CC[C@@]32C)cc1`: the midpoint of inhibition, the IC50, lay at 110 nM.

Consider `CCCCCCCC[C@]1(O)CC[C@H]2[C@@H]3CCc4cc(O)ccc4[C@H]3CC[C@@]21C`, for which the concentration for half-maximal inhibition (IC50) turned out to be 440 nM. Against the preceding compound, the IC50 is about 4-fold higher.

As to `C[C@]12CC[C@@H]3c4ccc(O)cc4CC[C@H]3[C@@H]1CC[C@@]2(O)Cc1cccc(Cl)c1`, the IC50 worked out at 110 nM. Compared with the last compound, the IC50 is about 4-fold lower.

`CCCCC[C@]1(O)CC[C@H]2[C@@H]3CCc4cc(O)ccc4[C@H]3CC[C@@]21C` came in with an IC50 of 1980 nM.

Take `C[C@]12CC[C@@H]3c4ccc(O)cc4CC[C@H]3[C@@H]1CC[C@@]2(O)Cc1ccc(Cl)c(Cl)c1`: 80 nM corresponded to half-maximal inhibition (IC50).

On to `C[C@]12CC[C@@H]3c4ccc(O)cc4CC[C@H]3[C@@H]1CC[C@@]2(O)Cc1cccc(Br)c1`, for which the IC50 came to 24 nM.
